In patent EP4755888A1 (ILAb Co., Ltd., priority 2023, dated 2025):

Biological target: PD-1/PD-L1 (Homo sapiens, UniProt Q9NZQ7)
Test: TR-FRET PD-1/PD-L1 binding inhibition at the molecular level (free proteins)
Settings: Tag1-PD-L1 and Tag2-PD-1 proteins, twelve concentrations from 200 nM, 2 hours at room temperature, read-out: FRET assay (IC50)
Summary of the method: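 HTRF read-out at 665/620 nm after 2 h at room temperature. Detection used anti-Tag1 Eu cryptate plus anti-Tag2 XL665 antibodies. Tagged PD-L1 and PD-1 proteins were pre-mixed with compound across twelve […] 1:2 dilutions starting at 200 nM.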

Sequence of PD-1/PD-L1 (Q9NZQ7 19-238 limits assumed): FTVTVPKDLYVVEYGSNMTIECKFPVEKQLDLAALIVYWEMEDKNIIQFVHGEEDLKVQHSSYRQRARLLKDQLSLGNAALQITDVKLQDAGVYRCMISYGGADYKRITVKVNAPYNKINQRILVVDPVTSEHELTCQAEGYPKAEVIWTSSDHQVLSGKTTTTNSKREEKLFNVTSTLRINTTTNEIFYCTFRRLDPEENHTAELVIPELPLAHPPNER

IC50 [nM] | SMILES
10 to 100 | CN[C@@H]1CCCn2nc(C(=O)Nc3cccc(-c4cccc(Nc5nc(C(F)(F)F)nc6cccnc56)c4Cl)c3Cl)cc21 [Compound 357, (R)-N-(2,2'-dichloro-3'-((2-(trifluoromethyl)pyrido[3,2-d]pyrimidin-4-yl)amino)-[1,1'-biphenyl]-3-yl)-4-(methylamino)-4,5,6,7-tetrahydropyrazolo[1,5-a]pyridine-2-carboxamide]
10 to 100 | O=C(Nc1cccc(-c2cccc(Nc3nc(C(F)F)nc4cc(CN5CC[C@@H](O)C5)cnc34)c2Cl)c1Cl)c1cc2n(n1)CCC[C@H]2N1CCC(O)CC1 [Compound 296, (R)-N-(2,2'-dichloro-3'-((2-(difluoromethyl)-7-(((R)-3-hydroxypyrrolidin-1-yl)methyl)pyrido[3,2-d]pyrimidin-4-yl)amino)-[1,1'-biphenyl]-3-yl)-4-(4-hydroxypiperidin-1-yl)-4,5,6,7-tetrahydropyrazolo[1,5-a]pyridine-2-carboxamide]
< 10 | Cc1c(NC(=O)c2cc3n(n2)CCCC3O)cccc1-c1cccc(-c2nc3cc(CN4CC[C@@H](C(=O)O)C4)cc(C#N)c3o2)c1C (stereo partly drawn) [Compound 61, (3R)-1-((7-cyano-2-(3'-(4-hydroxy-4,5,6,7-tetrahydropyrazolo[1,5-a]pyridine-2-carboxamido)-2,2'-dimethyl-[1,1'-biphenyl]-3-yl)benzo[d]oxazol-5-yl)methyl)pyrrolidine-3-carboxylic acid]
10 to 100 | O=C(Nc1cccc(-c2cccc(Nc3nc(C(F)(F)F)nc4cccnc34)c2Cl)c1Cl)c1cc2n(n1)CCC[C@H]2N1CCC(C(=O)O)CC1 [Compound 274, (R)-1-(2-((2,2'-dichloro-3'-((2-(trifluoromethyl)pyrido[3,2-d]pyrimidin-4-yl)amino)-[1,1'-biphenyl]-3-yl)carbamoyl)-4,5,6,7-tetrahydropyrazolo[1,5-a]pyridin-4-yl)piperidine-4-carboxylic acid]
< 10 | Cc1c(NC(=O)c2cc3n(n2)CCCC3NC(C)(C)C(=O)O)cccc1-c1cccc(Nc2nc(C(F)F)nc3cc(CN4CC[C@@H](O)C4)cnc23)c1C (stereo partly drawn) [Compound 137, 2-((2-((3'-((2-(difluoromethyl)-7-(((R)-3-hydroxypyrrolidin-1-yl)methyl)pyrido[3,2-d]pyrimidin-4-yl)amino)-2,2'-dimethyl-[1,1'-biphenyl]-3-yl)carbamoyl)-4,5,6,7-tetrahydropyrazolo[1,5-a]pyridin-4-yl)amino)-2-methylpropanoic acid]
< 10 | O=C(O)CN1CCn2nc(C(=O)Nc3cccc(-c4cccc(Nc5nccc6cc(CN7CC[C@@H](O)C7)cnc56)c4Cl)c3Cl)cc2C1 [Compound 324, (R)-2-(2-((2,2'-dichloro-3'-((3-((3-hydroxypyrrolidin-1-yl)methyl)-1,7-naphthyridin-8-yl)amino)-[1,1'-biphenyl]-3-yl)carbamoyl)-6,7-dihydropyrazolo[1,5-a]pyrazin-5(4H)-yl)acetic acid]
10 to 100 | COc1cc(-c2cccc(-c3cccc(NC(=O)c4cc5n(n4)CCC[C@H]5NCC(=O)O)c3Cl)c2Cl)cc(F)c1CNC[C@@H]1CCC(=O)N1 [Compound 250, 2-(((R)-2-((2,2'-dichloro-3"-fluoro-5"-methoxy-4"-(((((S)-5-oxopyrrolidin-2-yl)methyl)amino)methyl)-[1,1':3',1 "-terphenyl]-3-yl)carbamoyl)-4,5,6,7-tetrahydropyrazolo[1,5-a]pyridin-4-yl)amino)acetic acid]
10 to 100 | O=C(Nc1cccc(-c2cccc(NC(=O)c3cc4n(n3)CCCC4N3CCC(O)CC3)c2Cl)c1Cl)c1ccc(CNCCO)cn1 (stereo not drawn) [Compound 87, N-(2,2'-dichloro-3'-(5-(((2-hydroxyethyl)amino)methyl)picolinamido)-[1,1'-biphenyl]-3-yl)-4-(4-hydroxypiperidin-1-yl)-4,5,6,7-tetrahydropyrazolo[1,5-a]pyridine-2-carboxamide]
< 10 | COc1nc(-c2cccc(-c3cccc(-c4cc5n(n4)CCCC5N4CC[C@@H](C(=O)O)C4)c3C)c2C)cnc1CNC[C@@H]1CCC(=O)N1 (stereo partly drawn) [Compound 165, (3R)-1-(2-(3'-(6-methoxy-5-(((((S)-5-oxopyrrolidin-2-yl)methyl)amino)methyl)pyrazin-2-yl)-2,2'-dimethyl-[1,1'-biphenyl]-3-yl)-4,5,6,7-tetrahydropyrazolo[1,5-a]pyridin-4-yl)pyrrolidine-3-carboxylic acid]
< 10 | Cc1c(NC(=O)c2cc3n(n2)CCCC3NCCO)cccc1-c1cccc(NC(=O)c2nc3c(s2)CN(C)CC3)c1C (stereo not drawn) [Compound 147, N-(3'-(4-((2-hydroxyethyl)amino)-4,5,6,7-tetrahydropyrazolo[1,5-a]pyridine-2-carboxamido)-2,2'-dimethyl-[1,1'-biphenyl]-3-yl)-5-methyl-4,5,6,7-tetrahydrothiazolo[5,4-c]pyridine-2-carboxamide]
< 10 | Cc1c(NC(=O)c2ccc(CN3CC[C@@H](O)C3)cn2)cccc1-c1cccc(NC(=O)c2cc3n(n2)CCCC3N2CC[C@@H](O)C2)c1C (stereo partly drawn) [Compound 92, 4-((R)-3-hydroxypyrrolidin-1-yl)-N-(3'-(5-(((R)-3-hydroxypyrrolidin-1-yl)methyl)picolinamido)-2,2'-dimethyl-[1,1'-biphenyl]-3-yl)-4,5,6,7-tetrahydropyrazolo[1,5-a]pyridine-2-carboxamide]
< 10 | Cc1c(NC(=O)c2cc3n(n2)CCCC3N2CC[C@@H](C(=O)O)C2)cccc1-c1cccc(Nc2nc(C(F)F)nc3cc(CN4CC[C@@H](O)C4)cnc23)c1C (stereo partly drawn) [Compound 133, (3R)-1-(2-((3'-((2-(difluoromethyl)-7-(((R)-3-hydroxypyrrolidin-1-yl)methyl)pyrido[3,2-d]pyrimidin-4-yl)amino)-2,2'-dimethyl-[1,1'-biphenyl]-3-yl)carbamoyl)-4,5,6,7-tetrahydropyrazolo[1,5-a]pyridin-4-yl)pyrrolidine-3-carboxylic acid]
< 10 | COc1cc(-c2cccc(-c3cccc(NC(=O)c4cc5n(n4)CCCC5N4CC[C@@H](O)C4)c3Cl)c2Cl)cc(F)c1CNCCNC(C)=O (stereo partly drawn) [Compound 121, N-(4"-(((2-acetamidoethyl)amino)methyl)-2,2'-dichloro-3"-fluoro-5"-methoxy-[1,1':3',1"-terphenyl]-3-yl)-4-((R)-3-hydroxypyrrolidin-1-yl)-4,5,6,7-tetrahydropyrazolo[1,5-a]pyridine-2-carboxamide]
10 to 100 | O=C(Nc1cccc(-c2cccc(Nc3nc(C(F)F)nc4cccnc34)c2Cl)c1Cl)c1cc2n(n1)CCC[C@@H]2N1CCC(O)CC1 (stereo in doubt) [Compound 306, (S)-N-(2,2'-dichloro-3'-((2-(difluoromethyl)pyrido[3,2-d]pyrimidin-4-yl)amino)-[1,1'-biphenyl]-3-yl)-4-(4-hydroxypiperidin-1-yl)-4,5,6,7-tetrahydropyrazolo[1,5-a]pyridine-2-carboxamide]
< 10 | Cc1c(NC(=O)c2cc3n(n2)CCCC3NC[C@@H]2CCC(=O)N2)cccc1-c1cccc(Nc2nccc3cc(CN4CC[C@@H](O)C4)cnc23)c1C (stereo partly drawn) [Compound 15, N-(3'-((3-(((R)-3-hydroxypyrrolidin-1-yl)methyl)-1,7-naphthyridin-8-yl)amino)-2,2'-dimethyl-[1,1'-biphenyl]-3-yl)-4-((((S)-5-oxopyrrolidin-2-yl)methyl)amino)-4,5,6,7-tetrahydropyrazolo[1,5-a]pyridine-2-carboxamide]
10 to 100 | COc1nc(-c2cccc(-c3cccc(-c4cc5n(n4)CCCC5N4CCC(C(=O)O)CC4)c3C)c2C)cnc1CNC[C@@H]1CCC(=O)N1 (stereo partly drawn) [Compound 167, 1-(2-(3'-(6-methoxy-5-(((((S)-5-oxopyrrolidin-2-yl)methyl)amino)methyl)pyrazin-2-yl)-2,2'-dimethyl-[1,1'-biphenyl]-3-yl)-4,5,6,7-tetrahydropyrazolo[1,5-a]pyridin-4-yl)piperidine-4-carboxylic acid]
10 to 100 | Cc1c(NC(=O)c2cc3n(n2)CCC[C@H]3N2CC[C@@H](O)C2)cccc1-c1cccc(Nc2nc(C(F)(F)F)nc3cc(CN4CC[C@@H](O)C4)cnc23)c1C [Compound 345]
10 to 100 | Cc1c(NC(=O)c2cc3n(n2)CCC[C@@H]3N2CCC(O)CC2)cccc1-c1cccc(Nc2nc(C(F)F)nc3cccnc23)c1C [Compound 287, (S)-N-(3'-((2-(difluoromethyl)pyrido[3,2-d]pyrimidin-4-yl)amino)-2,2'-dimethyl-[1,1'-biphenyl]-3-yl)-4-(4-hydroxypiperidin-1-yl)-4,5,6,7-tetrahydropyrazolo[1,5-a]pyridine-2-carboxamide]
< 10 | CC(=O)NCCNC1CCCn2nc(-c3cccc(-c4cccc(Nc5nccc6cc(CN7CC[C@@H](O)C7)cnc56)c4Cl)c3Cl)cc21 (stereo partly drawn) [Compound 181, N-(2-((2-(2,2'-dichloro-3'-((3-(((R)-3-hydroxypyrrolidin-1-yl)methyl)-1,7-naphthyridin-8-yl)amino)-[1,1'-biphenyl]-3-yl)-4,5,6,7-tetrahydropyrazolo[1,5-a]pyridin-4-yl)amino)ethyl)acetamide]
< 10 | Cc1c(Nc2nccc3cc(CN4CC[C@@H](O)C4)cnc23)cccc1-c1cccc(NC(=O)c2cc3n(n2)CCCC3N2CC[C@@H](O)C2)c1Cl (stereo partly drawn) [Compound 29, N-(2-chloro-3'-((3-(((R)-3-hydroxypyrrolidin-1-yl)methyl)-1,7-naphthyridin-8-yl)amino)-2'-methyl-[1,1'-biphenyl]-3-yl)-4-((R)-3-hydroxypyrrolidin-1-yl)-4,5,6,7-tetrahydropyrazolo[1,5-a]pyridine-2-carboxamide]
10 to 100 | O=C(Nc1cccc(-c2cccc(Nc3nc(C(F)F)nc4cc(CN5CC[C@@H](O)C5)cnc34)c2Cl)c1Cl)c1cc2n(n1)CCC[C@@H]2N1CC(C(=O)O)C1 (stereo in doubt) [Compound 262, 1-((S)-2-((2,2'-dichloro-3'-((2-(difluoromethyl)-7-(((R)-3-hydroxypyrrolidin-1-yl)methyl)pyrido[3,2-d]pyrimidin-4-yl)amino)-[1,1'-biphenyl]-3-yl)carbamoyl)-4,5,6,7-tetrahydropyrazolo[1,5-a]pyridin-4-yl)azetidine-3-carboxylic acid]
